According to patent US9937182B2, “Therapeutic strategies for the treatment of preeclampsia” (UNIVERSITY OF IOWA RESEARCH FOUNDATION, priority 2013, dated 2018):
Several values for one entry are separate records, joined by “and”; a condition that tells them apart may be missing. Identical values can stand only once.

What was measured:
[1] = tested on: abdominal aorta; assay: Abdominal aortic ring vascular reactivity (organ bath); assay type: cell-based, mice; settings: contractile response
Experimental: Aortic Vascular Reactivity: Abdominal aortic rings were assessed for vascular reactivity as previously described (32). Briefly, mice were euthanized by overdose of pentobarbital (50 mg, i.p.), and the abdominal aorta was quickly removed and placed in Kreb's buffer containing (in mmol/L): 118.3 NaCl, 4.7 KCl, 1.2 MgSO4, 1.2 KH2PO4, 25 NaHCO3, 2.5 CaCl2 and 11 glucose. Vascular rings (4-5 mm in length) were suspended in oxygenated Kreb's buffer (95% O2/5% CO2) in organ baths at 37° C. and connected to a force transducer via steel hooks. Resting tension was adjusted to 0.5 grams over 45 minutes. Contractile responses were tested in response to AVP (10^−10-10^−6 mol/L), phenylephrine (PE, 10^−8-3×10^−5), endothelin-1 (ET-1, 10^−10-10^−7), prostaglandin F2α (PGF2α, 10^−7-10^−4), and angiotensin II (Ang II, 10^−10-10^−7). Following sub-maximal contraction with PGF2α (40-50% of max; 3×10^−6-6×10^−6), relaxation responses to acetylcholine (10^−8-3×10^−5) and sodium nitroprusside (10^−9-10^−5) were determined.
(§1) Statistics: Data were analyzed by ANOVA with repeated measures as appropriate. Post-hoc analyses were performed using Bonferroni multiple-comparisons procedures. EC50 and maximum response calculations were performed by fitting individual dose-response data sets to a four-parameter logistic function (Hillslope method); y=min+([…])/(1+(x/EC50)^Hillslope). All mRNA fold changes were calculated using the Livak method (54). All analytical comparisons were performed using SigmaStat/SigmaPlot (Systat). All data are presented as mean±sem.

[2] = tested on: 2°-branch mesenteric artery; assay: Mesenteric artery vascular reactivity (pressurized myography); assay type: cell-based, mice
Experimental: Mesenteric Artery Vascular Reactivity: Secondary branches of mesenteric artery were dissected and placed in chilled oxygenated (21% O2, 5% CO2, and 74% N2) Kreb's buffer. A segment (˜1 mm long) of artery was transferred to a vessel chamber (DMT), cannulated with glass micropipettes and secured with silk ligatures. The artery was slowly pressurized to 40 mmHg without flow. After 30 min equilibration, vessel viability was tested by constriction response to 100 mM KCl. Vascular responses to PE (10-9-10-5 mol/L), AVP (10-12-10-7 mol/L), and ET-1 (10-11-10-8 mol/L) were then assessed. The artery was then superfused with calcium-free Krebs buffer containing 10-5 mol/L sodium nitroprusside and 2 mmol/L EGTA to maximally dilate the vessel. Internal and external diameters were measured at 75 mm Hg. Wall thickness, media/lumen ratio and cross sectional area (CSA) were calculated as previously described by Neves, et al. (62).
as §1

[3] = tested on: C57Bl/6J female mice; assay: Vasopressin infusion during pregnancy, tail-cuff blood pressure; assay type: in vivo; settings: vasopressin 24 ng/hr s.c. compared to 2.4 ng/hr s.c., P=0.03
Experimental: Method: Wildtype C57Bl/6J female mice were chronically infused with varied doses of arginine vasopressin (Sigma-Aldrich), via subcutaneous osmotic minipumps (Alzet), for three days preceding mating, then through gestational day 16. Mice were first acclimated to the restraint devices used for recordings for one week (“week −3”) before data recordings began. Blood pressure was assessed daily for two weeks preceding minipump implantation, through gestational day 16. Blood pressure was measured using tail-cuff plethysmography (Visitech). On any given recording day, the mouse was restrained and lightly warmed throughout the (30 min) recording period. Thirty consecutive 1 min inflation/deflation cycles were performed and successful pressure determinations were averaged within recording period for each mouse. Data sets from individual days with fewer than 10 successful determinations were excluded from analyses. Daily blood pressure values were averaged within animal for each week for statistical comparisons.

[4] = tested on: wildtype female mice (C57Bl/6 background); assay: Vasopressin infusion (24 ng/hr) throughout pregnancy, fetal and placental masses and resorption at GD18; assay type: in vivo; settings: for Raw fetal mass (Fetus): individual fetuses; for Raw placental mass (Placenta): individual placentas
Experimental: Methods: Nine adult wildtype female mice were obtained from in-house breeding colonies that are based on the C57Bl/6 background strain. Three days before breeding, females were implanted with subcutaneous osmotic minipumps (Alzet) to continuously deliver arginine vasopressin (AVP, Sigma-Aldrich) at 24 ng/hr. Females were mated for two consecutive nights with wildtype male C57BL/6J males purchased from Jackson Laboratories. GD1 was defined based upon the presence of a vaginal sperm plug. On gestational day 18, female mice were sacrificed by CO2 asphyxiation, and fetuses and fetoplacental units were isolated by blunt dissection.

[5] = tested on: C57Bl/6J female mice; assay: Vasopressin infusion 0.24, 2.4 or 24 ng/hr during pregnancy, proteinuria and intrauterine growth restriction; assay type: in vivo; settings: for fetal masses: dams infused with 24 ng/hr compared to 2.4 ng/hr vasopressin; for urine protein content: pregnant mice, GD17-GD18, vasopressin 0.24, 2.4, 24 ng/hr
Experimental: Method: Eighteen female C57BL/6J mice were obtained from the Jackson Laboratories. Subcutaneous osmotic minipumps (Alzet) were implanted to deliver vasopressin at 0.24, 2.4, or 24 ng/hr (six mice each group). After three days, mice were mated with wildtype C57BL/6J male mice for one night (thereby defining gestational day zero). On GD16, mice were placed into single-mouse metabolic cages (Nalgene) to collect urine for two consecutive nights. On GD18, mice were sacrificed to quantify and collect fetuses and placentas. Urine protein was assessed by commercially-available BCA assay (Pierce).

[6] = all six pregnancies, vasopressin 24 ng/hr, GD18
[7] = average of dam 200245-2 (HD4), vasopressin 24 ng/hr, GD18
[8] = average of dam 200245-4 (HD5), vasopressin 24 ng/hr, GD18
[9] = average of dam 200301-2 (HD2), vasopressin 24 ng/hr, GD18
[10] = average of dam 200301-4 (HD3), vasopressin 24 ng/hr, GD18
[11] = average of dam 200357-1 (HD6), vasopressin 24 ng/hr, GD18
[12] = average of dam 200372-3 (HD9), vasopressin 24 ng/hr, GD18
[13] = dam 200245-2 (HD4), vasopressin 24 ng/hr, GD18
[14] = dam 200245-4 (HD5), vasopressin 24 ng/hr, GD18
[15] = dam 200301-2 (HD2), vasopressin 24 ng/hr, GD18
[16] = dam 200301-4 (HD3), vasopressin 24 ng/hr, GD18
[17] = dam 200357-1 (HD6), vasopressin 24 ng/hr, GD18
[18] = dam 200372-3 (HD9), vasopressin 24 ng/hr, GD18

Compound: NC(=O)CC[C@@H]1NC(=O)[C@H](Cc2ccccc2)NC(=O)[C@H](Cc2ccc(O)cc2)NC(=O)[C@@H](N)CSSC[C@@H](C(=O)N2CCC[C@H]2C(=O)N[C@@H](CCCN=C(N)N)C(=O)NCC(N)=O)NC(=O)[C@H](CC(N)=O)NC1=O [Arginine vasopressin]
- Maximum Response ([1]; male Control mice): 0.29 ± 0.03 g
- Maximum Response ([1]; male sRA mice): 0.12 ± 0.01 g
- Maximum Response ([2]; male Control mice): 52.5 ± 3.2%
- Maximum Response ([2]; male sRA mice): 17.3 ± 6.5 %
- blood pressure, third week of pregnancy (gestational days 14-16) [3]: increased blood pressure
- blood pressure, third week of pregnancy (gestational days 14-16) ([3]; listed as AVP): late-pregnancy increase in blood pressure
- Avg mass, Fetus [4, 6]: 0.4929 g
- Avg mass, Placenta [4, 6]: 0.0628 g
- Resorb, total count [4, 6]: 10
- resorbed fetoplacental units [4, 6]: 17%
- Avg mass, Fetus [4, 7]: 0.7741 g
- Avg mass, Placenta [4, 7]: 0.0536 g
- Avg mass, Fetus [4, 8]: 0.0371 g
- Avg mass, Placenta [4, 8]: 0.0388 g
- Avg mass, Fetus [4, 9]: 0.3741 g
- Avg mass, Placenta [4, 9]: 0.0760 g
- Avg mass, Fetus [4, 10]: 0.3054 g
- Avg mass, Placenta [4, 10]: 0.0672 g
- Avg mass, Fetus [4, 11]: 0.4660 g
- Avg mass, Placenta [4, 11]: 0.0545 g
- Avg mass, Fetus [4, 12]: 1.0077 g
- Avg mass, Placenta [4, 12]: 0.0761 g
- Raw fetal mass (Fetus) [4, 13]: 0.7964 g and 0.5962 g and 0.8258 g and 0.8183 g and 0.8336 g
- Raw fetal mass (Fetus) [4, 14]: 0.0154 g and 0.0699 g and 0.0261 g
- Raw fetal mass (Fetus) [4, 15]: 0.3756 g and 0.3352 g and 0.3805 g and 0.3954 g and 0.3094 g and 0.3777 g and 0.4078 g and 0.3880 g and 0.3971 g
- Raw fetal mass (Fetus) [4, 16]: 0.2866 g and 0.2599 g and 0.3328 g and 0.3609 g and 0.3085 g and 0.3087 g and 0.2955 g and 0.3356 g and 0.3129 g and 0.3034 g and 0.3086 g and 0.2516 g
- Raw fetal mass (Fetus) [4, 17]: 0.4865 g and 0.4962 g (2×) and 0.4780 g and 0.4092 g and 0.4543 g and 0.5241 g and 0.4999 g and 0.4399 g and 0.4501 g and 0.5057 g and 0.3521 g
- Raw fetal mass (Fetus) [4, 18]: 0.9287 g and 1.0395 g and 1.1359 g and 1.0723 g and 1.0064 g and 0.9679 g and 0.9034 g
- Raw placental mass (Placenta) [4, 13]: 0.0679 g and 0.0629 g and 0.0860 g and 0.0898 g and 0.0770 g and 0.0070 g and 0.0157 g and 0.0324 g and 0.0433 g
- Raw placental mass (Placenta) [4, 14]: 0.0494 g and 0.0410 g and 0.0261 g and <0.01 g (5×)
- Raw placental mass (Placenta) [4, 15]: 0.0687 g and 0.0810 g and 0.0828 g and 0.0796 g and 0.0638 g and 0.0840 g and 0.0936 g and 0.0477 g and 0.0827 g
- Raw placental mass (Placenta) [4, 16]: 0.0315 g and 0.0762 g and 0.0747 g and 0.0876 g and 0.0710 g and 0.0789 g and 0.0620 g and 0.0687 g and 0.0669 g and 0.0714 g and 0.0640 g and 0.0529 g
- Raw placental mass (Placenta) [4, 17]: 0.0599 g and 0.0709 g and 0.0663 g and 0.0509 g and 0.0480 g and 0.0648 g and 0.0767 g and 0.0678 g and 0.0426 g and 0.0471 g and 0.0569 g and 0.0499 g and 0.0067 g
- Raw placental mass (Placenta) [4, 18]: 0.0725 g and 0.0866 g and 0.0753 g and 0.0810 g and 0.0706 g and 0.0702 g and 0.0766 g
- fetus mass across all six pregnancies ([4]; n=48, vasopressin 24 ng/hr, GD18, P<0.0001 against 0.90 gram historical control): 0.4929±0.0397 gram/fetus
- female mice that became pregnant (of nine) ([4]; vasopressin 24 ng/hr, two nights mating): Six
- mice that became pregnant (of six) ([5]; 0.24 ng/hr infusion): two
- mice that became pregnant (of six) ([5]; 2.4 ng/hr infusion): five
- mice that became pregnant (of six) ([5]; 24 ng/hr infusion): three
- preterm labor ([5]; 24 ng/hr vasopressin infusion group, gestational day 17): one pregnant mouse exhibited preterm labor
- fetal masses ([5]; GD18, listed as Vasopressin): dose-dependent intrauterine growth restriction
- fetal masses ([5]; GD18, listed as vasopressin): significantly suppressed
- urine protein content ([5]; listed as Vasopressin): dose-dependent proteinuria
- urine protein content ([5]; listed as vasopressin): elevated in a dose-dependent manner
- placental masses ([5]; vasopressin 0.24, 2.4, 24 ng/hr, GD18): indistinguishable across treatment groups
